From US8273754B2, “Substituted 1H-pyrazolo[3,4-D]pyrimidine-6-amine compounds” (ArQule, Inc., priority 2008, dated 2012)
Where two headings read alike, the source gives them in different places.

Test system: cancer cells
Experiment: MTS cell growth inhibition assay (72 hours)
Format: cell-based
In short: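 Cells in DMEM with 1% FBS, seeded 18 h, then compound-treated 72 h at 37 °C. Viability by MTS/PMS for 4 h, formazan absorbance at 492 nm; IC50 taken as concentration giving 50% absorbance drop, activity banded by percent inhibition.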

[1] = Homo sapiens, DLD-1, 72 h, DLD-1 cells, read-out: DLD-1 MTS 72 hr at 10 μM
[2] = Homo sapiens, KATO III, 72 h, KATO III cells, read-out: KATO III MTS 72 hr at 10 μM
[3] = Homo sapiens, MDA-MB-231, 72 h, MDA-MB-231 cells, read-out: MDA-MB-231 MTS 72 hr at 10 μM
[4] = Homo sapiens, NCI-H1299, 72 h, NCI-H1299 cells, read-out: NCI-H1299 MTS 72 hr at 10 μM
[5] = PaCa-2, 72 h, PACA-2 cells, read-out: PACA-2 MTS 72 hr at 10 μM

`Nc1nc(NC2Cc3ccccc3N(S(=O)(=O)c3ccc(NC(=O)Nc4ccc(C(F)(F)F)cc4)cc3)C2)c2cn[nH]c2n1` (stereo not drawn) [Compound 188, 1-[4-({3-[(6-amino-1H-pyrazolo[3,4-d]pyrimidin-4-yl)amino]-3,4-dihydroquinolin-1(2H)-yl}sulfonyl)phenyl]-3-[4-(trifluoromethyl)phenyl]urea] was tested, and the inhibition at 10 µM [1] was greater than 79%, the inhibition at 10 µM [2] was greater than 79% and the inhibition at 10 µM [3] was greater than 79%. The inhibition at 10 µM [4] was greater than 79% and the inhibition at 10 µM [5] was greater than 79%.

`Nc1nc(NC2Cc3ccccc3N(S(=O)(=O)c3cccc(NC(=O)Nc4cccc(Cl)c4F)c3)C2)c2cn[nH]c2n1` (stereo not drawn) [Compound 221, 1-[3-({3-[(6-amino-1H-pyrazolo[3,4-d]pyrimidin-4-yl)amino]-3,4-dihydroquinolin-1(2H)-yl}sulfonyl)phenyl]-3-(3-chloro-2-fluorophenyl)urea] showed an inhibition at 10 µM [1] greater than 79%, an inhibition at 10 µM [2] greater than 79% and an inhibition at 10 µM [3] greater than 79%. For the same compound, the inhibition at 10 µM [4] was greater than 79% and the inhibition at 10 µM [5] was greater than 79%.

Compound `CS(=O)(=O)N1CC(Nc2nc(N)nc3[nH]ncc23)Cc2ccccc21` (stereo not drawn) [Compound 29, N4-(1-(methylsulfonyl)-1,2,3,4-tetrahydroquinolin-3-yl)-1H-pyrazolo[3,4-d]pyrimidine-4,6-diamine] has an inhibition at 10 µM [1] of less than 50%, an inhibition at 10 µM [2] of less than 50% and an inhibition at 10 µM [3] of less than 50%. The inhibition at 10 µM [4] was less than 50% and the inhibition at 10 µM [5] was less than 50%.

For `Cc1cc([N+](=O)[O-])ccc1NC(=O)N1CC(Nc2nc(N)nc3[nH]ncc23)Cc2ccccc21` (stereo not drawn) [Compound 113, 3-(6-amino-1H-pyrazolo[3,4-d]pyrimidin-4-ylamino)-N-(2-methyl-4-nitrophenyl)-3,4-dihydroquinoline-1(2H)-carboxamide], the inhibition at 10 µM [1] was greater than 79%, the inhibition at 10 µM [2] was greater than 79% and the inhibition at 10 µM [3] was greater than 79%. For the same compound, the inhibition at 10 µM [4] was greater than 79% and the inhibition at 10 µM [5] was greater than 79%.

`Cc1ccc(CN2CC(Nc3nc(N)nc4[nH]ncc34)Cc3ccccc32)cc1C` (stereo not drawn) [Compound 130, N4-[1-(3,4-dimethylbenzyl)-1,2,3,4-tetrahydroquinolin-3-yl]-1H-pyrazolo[3,4-d]pyrimidine-4,6-diamine] showed an inhibition at 10 µM [1] of less than 50%, an inhibition at 10 µM [2] of less than 50% and an inhibition at 10 µM [3] of less than 50%. For the same compound, the inhibition at 10 µM [4] was less than 50% and the inhibition at 10 µM [5] was less than 50%.

Compound `Nc1nc(NC2Cc3ccccc3N(S(=O)(=O)c3cccc(NC(=O)Nc4cc(F)cc(C(F)(F)F)c4)c3)C2)c2cn[nH]c2n1` (stereo not drawn) [Compound 217, 1-[3-({3-[(6-amino-1H-pyrazolo[3,4-d]pyrimidin-4-yl)amino]-3,4-dihydroquinolin-1(2H)-yl}sulfonyl)phenyl]-3-[3-fluoro-5-(trifluoromethyl)phenyl]urea] has an inhibition at 10 µM [1] greater than 79%, an inhibition at 10 µM [2] greater than 79% and an inhibition at 10 µM [3] greater than 79%. The inhibition at 10 µM [4] was greater than 79% and the inhibition at 10 µM [5] was greater than 79%.

Compound `Nc1nc(NC2Cc3ccccc3N(C(=O)C3CC3)C2)c2cn[nH]c2n1` (stereo not drawn) [Compound 80, (3-(6-amino-1H-pyrazolo[3,4-d]pyrimidin-4-ylamino)-3,4-dihydroquinolin-1(2H)-yl)(cyclopropyl)methanone] has an inhibition at 10 µM [1] of less than 50%, an inhibition at 10 µM [2] of less than 50% and an inhibition at 10 µM [3] of less than 50%. The inhibition at 10 µM [4] was less than 50% and the inhibition at 10 µM [5] was less than 50%.

`Nc1nc(NC2Cc3ccccc3N(S(=O)(=O)c3ccc(-c4ccc(F)cc4)cc3)C2)c2cn[nH]c2n1` (stereo not drawn) [Compound 65, N4-(1-(4′-fluorobiphenyl-4-ylsulfonyl)-1,2,3,4-tetrahydroquinolin-3-yl)-1H-pyrazolo[3,4-d]pyrimidine-4,6-diamine] was tested, and the inhibition at 10 µM [1] was 50 to 79%, the inhibition at 10 µM [2] was greater than 79% and the inhibition at 10 µM [3] was 50 to 79%. For the same compound, the inhibition at 10 µM [4] was 50 to 79% and the inhibition at 10 µM [5] was greater than 79%.

Compound `Nc1nc(NC2Cc3ccccc3N(S(=O)(=O)c3cccc(NC(=O)Nc4c(F)cc(Br)cc4F)c3)C2)c2cn[nH]c2n1` (stereo not drawn) [Compound 206, 1-[3-({3-[(6-amino-1H-pyrazolo[3,4-d]pyrimidin-4-yl)amino]-3,4-dihydroquinolin-1(2H)-yl}sulfonyl)phenyl]-3-(4-bromo-2,6-difluorophenyl)urea] has an inhibition at 10 µM [1] of less than 50%, an inhibition at 10 µM [2] of 50 to 79% and an inhibition at 10 µM [3] of less than 50%. For the same compound, the inhibition at 10 µM [4] was less than 50% and the inhibition at 10 µM [5] was 50 to 79%.

In the case of `Nc1nc(NC2Cc3ccccc3N(C(=O)c3cc(F)cc(F)c3F)C2)c2cn[nH]c2n1` (stereo not drawn) [Compound 92, (3-(6-amino-1H-pyrazolo[3,4-d]pyrimidin-4-ylamino)-3,4-dihydroquinolin-1(2H)-yl)(2,3,5-trifluorophenyl)methanone], the inhibition at 10 µM [1] was greater than 79%, the inhibition at 10 µM [2] was greater than 79% and the inhibition at 10 µM [3] was greater than 79%. For the same compound, the inhibition at 10 µM [4] was 50 to 79% and the inhibition at 10 µM [5] was greater than 79%.

Compound `Nc1nc(NC2Cc3ccccc3N(S(=O)(=O)c3ccc(NC(=O)Nc4ccc(F)c(F)c4)cc3)C2)c2cn[nH]c2n1` (stereo not drawn) [Compound 194, 1-[4-({3-[(6-amino-1H-pyrazolo[3,4-d]pyrimidin-4-yl)amino]-3,4-dihydroquinolin-1(2H)-yl}sulfonyl)phenyl]-3-(3,4-difluorophenyl)urea] has an inhibition at 10 µM [1] greater than 79%, an inhibition at 10 µM [2] greater than 79% and an inhibition at 10 µM [3] greater than 79%. It also gave an inhibition at 10 µM [4] greater than 79% and an inhibition at 10 µM [5] greater than 79%.

For `Nc1nc(NC2Cc3ccccc3N(S(=O)(=O)c3cccc(NC(=O)Nc4ccc(C(F)(F)F)cc4)c3)C2)c2cn[nH]c2n1` (stereo not drawn) [Compound 209, 1-[3-({3-[(6-amino-1H-pyrazolo[3,4-d]pyrimidin-4-yl)amino]-3,4-dihydroquinolin-1(2H)-yl}sulfonyl)phenyl]-3-[4-(trifluoromethyl)phenyl]urea], the inhibition at 10 µM [1] was greater than 79%, the inhibition at 10 µM [2] was greater than 79% and the inhibition at 10 µM [3] was greater than 79%. For the same compound, the inhibition at 10 µM [4] was greater than 79% and the inhibition at 10 µM [5] was greater than 79%.

With `Nc1nc(NC2Cc3ccccc3N(S(=O)(=O)c3ccc4ccccc4c3)C2)c2cn[nH]c2n1` (stereo not drawn) [Compound 34, N4-(1-(naphthalen-2-ylsulfonyl)-1,2,3,4-tetrahydroquinolin-3-yl)-1H-pyrazolo[3,4-d]pyrimidine-4,6-diamine] the inhibition at 10 µM [1] was less than 50%, the inhibition at 10 µM [2] was less than 50% and the inhibition at 10 µM [3] was less than 50%. It also gave an inhibition at 10 µM [4] of less than 50% and an inhibition at 10 µM [5] of less than 50%.

In the case of `Nc1nc(NC2Cc3ccccc3N(S(=O)(=O)c3cccc(NC(=O)Nc4ccc(Cl)c(C(F)(F)F)c4)c3)C2)c2cn[nH]c2n1` (stereo not drawn) [Compound 223, 1-(3-(3-(6-amino-1H-pyrazolo[3,4-d]pyrimidin-4-ylamino)-3,4-dihydroquinolin-1(2H)-ylsulfonyl)phenyl)-3-(4-chloro-3-(trifluromethyl)phenyl)urea], the inhibition at 10 µM [1] was greater than 79%, the inhibition at 10 µM [2] was greater than 79% and the inhibition at 10 µM [3] was greater than 79%. For the same compound, the inhibition at 10 µM [4] was greater than 79% and the inhibition at 10 µM [5] was greater than 79%.

Compound `Nc1nc(NC2Cc3ccccc3N(C(=O)c3c(F)cccc3Cl)C2)c2cn[nH]c2n1` (stereo not drawn) [Compound 99, (3-(6-amino-1H-pyrazolo[3,4-d]pyrimidin-4-ylamino)-3,4-dihydroquinolin-1(2H)-yl)(2-chloro-6-fluorophenyl)methanone] has an inhibition at 10 µM [1] of less than 50%, an inhibition at 10 µM [2] of less than 50% and an inhibition at 10 µM [3] of less than 50%. It also gave an inhibition at 10 µM [4] of less than 50% and an inhibition at 10 µM [5] of less than 50%.

`Nc1nc(NC2Cc3ccccc3N(S(=O)(=O)c3cccc(NC(=O)Nc4ccc(F)c(F)c4)c3)C2)c2cn[nH]c2n1` (stereo not drawn) [Compound 207, 1-[3-({3-[(6-amino-1H-pyrazolo[3,4-d]pyrimidin-4-yl)amino]-3,4-dihydroquinolin-1(2H)-yl}sulfonyl)phenyl]-3-(3,4-difluorophenyl)urea] showed an inhibition at 10 µM [1] greater than 79%, an inhibition at 10 µM [2] greater than 79% and an inhibition at 10 µM [3] greater than 79%. For the same compound, the inhibition at 10 µM [4] was greater than 79% and the inhibition at 10 µM [5] was greater than 79%.

`Nc1nc(NC2Cc3ccccc3N(C(=O)c3ccccc3Br)C2)c2cn[nH]c2n1` (stereo not drawn) [Compound 81, (3-(6-amino-1H-pyrazolo[3,4-d]pyrimidin-4-ylamino)-3,4-dihydroquinolin-1(2H)-yl)(2-bromophenyl)methanone] gave an inhibition at 10 µM [1] of 50 to 79%, an inhibition at 10 µM [2] greater than 79% and an inhibition at 10 µM [3] greater than 79%. For the same compound, the inhibition at 10 µM [4] was less than 50% and the inhibition at 10 µM [5] was 50 to 79%.

For `Nc1nc(NC2Cc3ccccc3N(S(=O)(=O)c3ccc(-c4ccccc4)cc3)C2)c2cn[nH]c2n1` (stereo not drawn) [Compound 16, N4-(1-(biphenyl-4-ylsulfonyl)-1,2,3,4-tetrahydroquinolin-3-yl)-1H-pyrazolo[3,4-d]pyrimidine-4,6-diamine], the inhibition at 10 µM [1] was 50 to 79%, the inhibition at 10 µM [2] was 50 to 79% and the inhibition at 10 µM [3] was less than 50%. It also gave an inhibition at 10 µM [4] of less than 50% and an inhibition at 10 µM [5] of 50 to 79%.

Work on `Cc1ccc(C)c(CN2CC(Nc3nc(N)nc4[nH]ncc34)Cc3ccccc32)c1` (stereo not drawn) [Compound 148, N4-[1-(2,5-dimethylbenzyl)-1,2,3,4-tetrahydroquinolin-3-yl]-1H-pyrazolo[3,4-d]pyrimidine-4,6-diamine] yielded an inhibition at 10 µM [1] greater than 79%, an inhibition at 10 µM [2] greater than 79% and an inhibition at 10 µM [3] of 50 to 79%. The inhibition at 10 µM [4] was 50 to 79% and the inhibition at 10 µM [5] was greater than 79%.

Work on `CCc1ccc(S(=O)(=O)N2CCC(Nc3nc(N)nc4[nH]ncc34)Cc3ccccc32)cc1` (stereo not drawn) [Compound 172, N4-{1-[(4-ethylphenyl)sulfonyl]-2,3,4,5-tetrahydro-1H-1-benzazepin-4-yl}-1H-pyrazolo[3,4-d]pyrimidine-4,6-diamine] yielded an inhibition at 10 µM [1] of less than 50%, an inhibition at 10 µM [2] of less than 50% and an inhibition at 10 µM [3] of less than 50%. It also gave an inhibition at 10 µM [4] of less than 50% and an inhibition at 10 µM [5] of less than 50%.

Work on `Nc1nc(NC2CCN(S(=O)(=O)c3ccc(F)c(Cl)c3)c3ccccc3C2)c2cn[nH]c2n1` (stereo not drawn) [Compound 181, N4-{1-[(3-chloro-4-fluorophenyl)sulfonyl]-2,3,4,5-tetrahydro-1H-1-benzazepin-4-yl}-1H-pyrazolo[3,4-d]pyrimidine-4,6-diamine] yielded an inhibition at 10 µM [1] of less than 50%, an inhibition at 10 µM [2] of less than 50% and an inhibition at 10 µM [3] of less than 50%. For the same compound, the inhibition at 10 µM [4] was less than 50% and the inhibition at 10 µM [5] was 50 to 79%.
